Laboratory results published in patent publication US20250302981A1, “NOVEL USE OF ANTICANCER AGENT PRODRUG CONJUGATE” (UNIVERSITY OF ULSAN FOUNDATION FOR INDUSTRY COOPERATION, priority 2020, published 2025).
*1 amine or outer side, *2 acyl side, *3 side chain or, on linkers, in order; H or OH if unused. Where a SMILES comes first, the peptide text is derived from it. [ ]: non-standard residue; d: D form. The star is where a group is joined. Doxorubicin(3'-N) = COc1cccc2c1C(=O)c1c(O)c3c(c(O)c1C2=O)C[C@@](O)(C(=O)CO)C[C@@H]3O[C@H]1C[C@H](N*)[C@H](O)[C@H](C)O1; Hexanoyl(6-maleimido) = O=C1C=CC(=O)N1CCCCCC(=O)*; PABC = O=C(OCc1ccc(N[*:1])cc1)[*:2]

What was measured:
[1] = Pharmacokinetic analysis in cynomolgus monkeys; assay type: in vivo; conditions: intravenous, equivalent to 1 mg/kg doxorubicin
Procedure: Blood samples were collected at 15, 30, 45, 60, and 90 min intervals, and then again at 2, 3, 4, 6, 8, 12, 24, 48, 72, 96, 120, 144, and 168 h. The blood samples were stabilized with sodium citrate and then cryocentrifuged at 2000×g for 15 min to obtain plasma. 200 μl of the plasma sample was added to a 96-well black microplate and the fluorescence of doxorubicin was measured at 485/590 nm. The reference was fresh plasma and the fluorescence was measured in the same manner.

[2] = biological target: T1, human serum albumin (HSA) (Homo sapiens, UniProt P02768); experiment: Conjugate binding with human serum albumin, HPLC analysis
T1 construct: purchased Sigma-Aldrich
Procedure: The maleimide-KGDEVD-PABC-doxorubicin synthesized in Example 1 was then added to a concentration of 100 μM and incubated at room temperature. The samples were analyzed by analytical HPLC (FIG. 1). (KGDEVD corresponds to SEQ ID NO: 32)

[3] = biological target: T2, serum albumin in human blood (human plasma sample) (Homo sapiens, UniProt P02768); experiment: Conjugate binding with serum albumin in human plasma, HPLC analysis
T2 construct: from tissue; host or cells: human plasma
Procedure: The conjugation binding of maleimide-KGDEVD-PABC-doxorubicin with HSA was completed in 3 min. However, when plasma was pre-incubated with 4-maleimidobutyric acid which has a thiol-bound maleimide functional group, prior to incubation with maleimide-KGDEVD-PABC-doxorubicin no, binding of maleimide-KGDEVD-PABC-doxorubicin to plasma was observed even after 1 h as in the previous experiment conducted with serum.

[4] = Pharmacokinetic analysis in rats; assay type: in vivo, Sprague-Dawley rats; conditions: equivalent to 1 mg/kg doxorubicin; for half-life: Sprague-Dawley, rat, plasma, iv, 1 mg/kg
Procedure: Blood samples were collected at 5, 15, 30, 60, and 90 min intervals and then again at 2, 4, 8, 12, 24, 48, 72, 96, and 144 h. The blood samples were stabilized with sodium citrate and then cryocentrifuged at 2000×g for 15 min to obtain plasma. 200 μl of the plasma sample was placed in a 96-well black microplate and the fluorescence of doxorubicin was measured at 485/590 nm. The reference was fresh plasma and the fluorescence was measured in the same manner.

[5] = test system: tumor cell lines with wild-type KRAS genotype; experiment: Concentration-dependent cytotoxicity by MTT analysis; assay type: cell-based; conditions: wild-type KRAS cells, concentrations up to 100 μM
[6] = test system: tumor cell lines with KRAS variant genotype; experiment: as above; assay type: cell-based; conditions: KRAS variant cells
[7] = test system: tumor cell lines with wild-type PTEN protein genotype; experiment: as above; assay type: cell-based; conditions: PTEN wild-type cells, up to 100 μM
[8] = test system: tumor cell lines with PTEN protein loss genotype; experiment: as above; assay type: cell-based; conditions: PTEN protein loss cells, up to 100 μM
[9] = test system: cell lines with KRAS variant genotype (Mia-paca2, AsPC1, MDA-MB231, CT26, HCT116, H2122, A549); experiment: Tumor growth in mice inoculated with wild-type KRAS or KRAS variant tumor cells; assay type: in vivo, C3H/HeN mice; conditions: intravenous every 3 days, equivalent to 1, 5 and 10 mg/kg doxorubicin, 1 month
Procedure: The maleimide-KGDEVD-PABC-doxorubicin was administered intravenously every 3 days at doses equivalent to 1, 5, and 10 mg/kg of doxorubicin, respectively, and then observed for 1 month. […] Therefore, the prodrug conjugate according to one embodiment of the present invention is not expected to have significant side effects.

[10] = test system: cancer cell groups with PTEN protein loss genotype (H1299, MDA-MB436); experiment: Tumor growth in mice inoculated with PTEN protein loss tumor cells; assay type: in vivo, C3H/HeN mice; conditions: intravenous every 3 days, equivalent to 1, 5 and 10 mg/kg doxorubicin, 1 month; compared to the control group
Procedure: The maleimide-KGDEVD-PABC-doxorubicin was administered intravenously every 3 days at concentrations equivalent to 1, 5, and 10 mg/kg of doxorubicin, respectively, and observed for 1 month.

[11] = test system: tumor cells having KRAS variant genotype (Mia-paca2); experiment: Tumor inhibition compared with Aldoxorubicin in mice implanted with KRAS variant tumor cells; assay type: in vivo, C3H/HeN mice; conditions: Mia-paca2, intravenous every 3 days, equivalent to 5 mg/kg doxorubicin, 1 month
From the text: Using C3H/HeN mice implanted with tumor cells having KRAS variant genotype (Mia-paca2), the tumor inhibition effect of the maleimide-KGDEVD-PABC-doxorubicin (MPD1) synthesized in Example 1 of the present invention, the maleimide-KGDVED-PABC-doxorubicin (EMC-KGDVED-DOX) with different peptide sequence, and Aldoxorubicin, a conventional doxorubicin-based anticancer drug which is linked to a maleimide so that it binds to albumin in plasma upon administration and increases half-life, were compared (FIGS. 19 and 20).

[12] = biological target: HSA-Maleimide-KGDVED-PABC-doxorubicin, P02768
[13] = biological target: HSA-maleimide-KGDEVD-PABC-doxorubicin, P02768

For `COc1cccc2c1C(=O)c1c(O)c3c(c(O)c1C2=O)C[C@@](O)(C(=O)CO)C[C@@H]3O[C@H]1C[C@H](NC(=O)OCc2ccc(NC(=O)[C@H](CC(=O)O)NC(=O)[C@@H](NC(=O)[C@H](CCC(=O)O)NC(=O)[C@H](CC(=O)O)NC(=O)CNC(=O)[C@H](CCCCN)NC(C)=O)C(C)C)cc2)[C@H](O)[C@H](C)O1` [AcKGDEVD-PABC-doxorubicin, Ac-Lys-Gly-Asp-Glu-Val-Asp-PABC-DOX, reference compound] (Ac-KGDEVD[PABC]-{Doxorubicin(3'-N)}), the “time until plasma concentration decreased below the detection limit of 5 ng/ml” value [1] was at most 6 h.

With `COc1cccc2c1C(=O)c1c(O)c3c(c(O)c1C2=O)C[C@@](O)(C(=O)CO)C[C@@H]3O[C@H]1C[C@H](NC(=O)OCc2ccc(NC(=O)[C@H](CC(=O)O)NC(=O)[C@@H](NC(=O)[C@H](CCC(=O)O)NC(=O)[C@H](CC(=O)O)NC(=O)CNC(=O)[C@H](CCCCNC(=O)CCCCCN3C(=O)C=CC3=O)NC(C)=O)C(C)C)cc2)[C@H](O)[C@H](C)O1` [maleimide-KGDEVD-PABC-doxorubicin, Ac-Lys(EMC)-Gly-Asp-Glu-Val-Asp-PABC-DOX] (Ac-K(Hexanoyl(6-maleimido))GDEVD[PABC]-{Doxorubicin(3'-N)}) the “time to complete conjugate binding with HSA” value ([2]; HSA 700 μM in PBS, conjugate 100 μM, room temperature) was 3 min, the “binding to HSA pre-incubated with 4-maleimidobutyric acid” value ([2]; HSA pre-incubated with 4-maleimidobutyric acid, after 1 h) was “no binding” and the “time to complete conjugation binding with HSA in human plasma” value ([3]; human plasma, conjugate 100 μM, room temperature) was 3 min. For the same molecule, the “binding to plasma pre-incubated with 4-maleimidobutyric acid” value ([3]; plasma pre-incubated with 4-maleimidobutyric acid, after 1 h) was “no, binding”, the half-life ([4]; read-out: half-life) was over 19 h and the half-life ([4]; read-out: terminal half-life) was 0.5 h. For the same molecule, the “time remained active in plasma after administration” value ([4]; intravenous) was 6 days, the “time until plasma concentrations decreased below the detection limit of 5 ng/ml” value ([4]; intravenous) was at most 4 h and the half-life ([1]; cynomolgus monkey, in vivo, read-out: terminal half-life) was over 106 h. For the same molecule, the “time detectable in plasma after administration” value [1] was 7 days, the IC50 [5] was “generally higher” and the IC50 [6] was “lower”. For the same molecule, the “IC50 values based on doxorubicin” value [7] was “lower IC50 values”, the “IC50 values based on doxorubicin” value [8] was “higher IC50 values” and the tumor growth inhibition ([9]; KRAS variant versus wild-type KRAS tumors) was “better tumor growth inhibition than those with wild-type KRAS genotype”. The “effect on body weight of the experimental animals” value ([9]; wild-type KRAS and KRAS variant tumors) was “none of the drugs had a significant effect on the body weight”, the tumor inhibition [10] was “greater tumor inhibition” and the “in vivo anticancer effects (tumor inhibition)” value [11] was “anticancer effects similar to those of Aldoxorubicin”.

B1: recombinant human caspase-3 (protein)
chain: SGISLDNSYKMDYPEMGLCIIINNKNFHKSTGMTSRSGTDVDAANLRETFRNLKYEVRNKNDLTREEIVELMRDVSKEDHSKRSSFVCVLLSHGEEGIIFGTNGPVDLKKITNFFRGDRCRSLTGKPKLFIIQACRGTELDCGIETDSGVDDDMACHKIPVEADFLYAYSTAPGYYSWRNSKDGSWFIQSLCAMLKQYADKLEFMHILTRVNRKVATEFESFSFDATFHAKKQIPCIVSMLTKELYFYH
For B1, the “cleavage and release of doxorubicin, HPLC” value [12] was “no cleavage was observed for the HSA-Maleimide-KGDVED-PABC-doxorubicin conjugate with a different peptide amino acid sequence” and the “cleavage and release of doxorubicin, HPLC” value [13] was “Doxorubicin was cleaved and isolated from the HSA-maleimide-KGDEVD-PABC-doxorubicin conjugate within 1 h”.
